These results are taken from US20220257582A1, “TREATMENT FOR SYNUCLEINOPATHIES” (SUN PHARMA ADVANCED RESEARCH COMPANY LIMITED, priority 2019, published 2022).

The assay deals with AAV1/2-mediated over-expression of human A53T alpha-synuclein (hA53T-aSYN) in the striatonigral region of female Sprague Dawley (SD) rats. Description: AAV1/2 alpha synuclein rat model of synucleinopathy (neuroprotective potential). It counts as in vivo. Particulars: Day 2 to Day 42; for Striatal dopamine levels, operated vs non-operated sides: FIG. 3; for Nigral TH+ve cell counts (operated side): TH+ve neurons in the striatonigral region compared to empty AAV1/2 control animals: immunohistochemistry and stereological cell counting, FIG. 1; for Striatal TH OD (operated vs non-operated sides): FIG. 2. The protocol: Compound I was evaluated in a adeno-associated virus (AAV) AAV1/2 alpha synuclein rat model based upon AAV1/2-mediated delivery and over-expression of human A53T alpha-synuclein (hA53T-aSYN) in the striatonigral region of the midbrain of female Sprague Dawley (SD) rats (Koprich et al, PLoS One. 7; 6(3):e17698, 2011). The study was designed to assess the ability of Compound I to protect dopaminergic neurons from viral vector mediated over-expression of aSYN leading to neurodegeneration in rat model. This model is typically used as a model for aSYN-induced Parkinsonism, but may serve as a model for aSYN-induced neuronal loss in general. AAV1/2 hA53T-aSYN (a viral vector delivering the capability to express human A53T mutant aSYN), or the control AAV1/2 empty vector, was injected stereotactically and unilaterally, into the striatal region of the midbrain. Rats were treated orally with Compound I (melt extrusion suspension), once daily, to provide equivalent doses of Compound I at 15, 30 and 45 mg/kg.
AAV1/2 hA53T-aSYN or empty AAV1/2 vector was administered sterotactically and unilaterally into the right striatal region on Day 1. Starting on Day 2 and continuing daily until Day 42, animals were fasted for 6 hr prior to oral administration of Compound I or vehicle (placebo). Food was reintroduced 60 minutes later. A total of 5 groups of animals, each group N=12, were employed.
Animals were killed for post-mortem assessments on Day 43, at least 18 h after last administration of Compound I or vehicle. Brains were removed along with the terminal blood collection.
As a consequence of localized synucleinopathy caused by the AAV1/2-encoded hA53T aSYN at or near the site of injection, tyrosine hydroxylase (TH)-expressing dopaminergic neurons in the affected striatonigral area degenerate (Koprich et al., PLoS One, 7; 6(3):e17698, 2011). Number of tyrosine hydroxylase positive (TH^+ve) cells within the striatonigral region of the right side of the brain (injected side), were assessed using immunohistochemistry and stereological cell counting. Tyrosine hydroxylase is a critical enzyme involved in dopamine biosynthesis and thus, its presence can be used as a marker of live neurons capable of producing dopamine.

Turning to `Cc1ccc(C(=O)NNC(=O)c2c(C)cccc2Cl)cc1C#Cc1cnc2ccccc2c1` [Compound I], where the note is “15 mg/kg oral once daily”, the “Striatal dopamine levels, operated vs non-operated sides” value was “failed to restore the dopamine biosynthetic capability” and the “Nigral TH+ve cell counts (operated side): TH+ve neurons in the striatonigral region compared to empty AAV1/2 control animals” value was “significant reduction (p<0.05)”. Where the note is “30 mg/kg oral once daily”, the “Striatal TH OD (operated vs non-operated sides)” value is on record as “significant neuroprotective effect”; the “Striatal dopamine levels, operated vs non-operated sides” value is “failed to restore the dopamine biosynthetic capability”; the “Nigral TH+ve cell counts (operated side): TH+ve neurons in the striatonigral region compared to empty AAV1/2 control animals” value was “significant reduction (p<0.05)”. For the same molecule, for the setting “45 mg/kg oral once daily”, the “Striatal TH OD (operated vs non-operated sides)” value is on record as “significant neuroprotective effect”; the “Striatal dopamine levels, operated vs non-operated sides” value is reported as “still lower than that from its left counterpart”; the “Nigral TH+ve cell counts (operated side): TH+ve neurons in the striatonigral region compared to empty AAV1/2 control animals” value is on record as “did not show significant reduction (p>0.05)”.
